Source: patent publication US20240174690A1, “ANNULATED 2-AMINO-3-CYANO THIOPHENES AND DERIVATIVES FOR THE TREATMENT OF CANCER” (BOEHRINGER INGELHEIM INTERNATIONAL GMBH, priority 2021, published 2024)
pIC50: −log10 of the molar value. ≈ marks a conversion by molar mass, not a printed value. Where two headings read alike, the source gives them in different places.

Tests used:
[1] = test system: AsPC-1 cells; assay: AsPC-1 CTG proliferation assay (120 h) (pancreatic cancer, G12D); assay type: cell-based; settings: Homo sapiens, ASPC1
Method: AsPC-1 CTG Proliferation Assay (120 h) (Pancreatic Cancer, G12D)
The CTG assay is designed to measure quantitatively the proliferation of AsPC-1 cells (ATCC […]), using the CellTiter Glow Assay Kit (Promega G7571). Cells are grown in RPMI medium (ATCC) supplemented with Fetal Calf Serum (Life Technologies, Gibco BRL, Cat. No. 10270-106). On “day 0” 2000 AsPC-1 cells are seeded in 60 μL RPMI ATCC+10% FCS+Penstrep in a 384-well plate, flat and clear bottom (Greiner, PNr. 781091). Cells are then incubated in the plates at 37° C. in a CO2 incubator overnight. On day 1, compounds (10 mM stock in DMSO) are added with the ECHO acoustic liquid handler system (Beckman Coulter), including DMSO controls. Plates are incubated for 120 h, and cell viability is measured using CellTiter-Glo luminescent cell viability reagent (Promega product code G7570). Viability (stated as percent of control) is defined as relative luminescence units RLU of each well divided by the RLU of cells in DMSO controls. IC50 values are determined from viability measurements by non-linear regression using a four-parameter model.

[2] = Solubility measurement (DMSO solution method), McIlvaine buffer pH 4.5 or 6.8; assay type: physicochemical; settings: aqueous buffer, kinetic from dmso stock, DMSO stock diluted to 250 μM, 24 h shaking at ambient temperature
Method: The DMSO solution is diluted with an aqueous medium (Mcllvaine buffer with pH=4.5 or 6.8) to a final concentration of 250 μM. After 24 h of shaking at ambient temperature a potentially formed precipitate is removed by filtration. The concentration of the test compound in the filtrate is determined by LC-UV methods by calibrating the signal to the signal of a reference solution with complete dissolution of the test compound in acetonitrile/water (1:1) with known concentration.

[3] = test system: SAS cells; assay: SAS CTG proliferation assay (120 h) (HNSCC, wt amplified); assay type: cell-based
Method: SAS CTG Proliferation Assay (120 h) (HNSCC, Wt Amplified)
SAS cells (JCRB0260) are dispensed into 384-well plates, flat and clear bottom (Greiner, PNr. 781091) at a density of 300 cells per well in 60 μL DMEM:F12 (Gibco 31330-038)+10% Fetal Calf Serum (HyClone, PNr.: SH30084.03) and incubated at 37° C. in a CO2 incubator overnight. The next day, compounds (10 mM stock in DMSO) are added with the ECHO acoustic liquid handler system (Beckman Coulter), including DMSO controls. Plates are incubated for 120 h, and cell viability is measured using CellTiter-Glo luminescent cell viability reagent (Promega product code G7570). Viability (stated as percent of control) is defined as relative luminescence units RLU of each well divided by the RLU of cells in DMSO controls. IC50 values are determined from viability measurements by non-linear regression using a four-parameter model.

[4] = test system: KRAS G12D-dependent Ba/F3 cells; assay: Ba/F3 proliferation assay, KRAS G12D; assay type: cell-based; settings: Mus musculus, BaF3, 72 h, AlamarBlue
Method: Plasmids containing KRASG12 mutants (i.e. […], G12C, G12V) are obtained from GeneScript. To generate KRASG12-dependent Ba/F3 models, Ba/F3 cells are transduced with retroviruses containing vectors that harbor KRASG12 isoforms. Platinum-E cells (Cell Biolabs) are used for retrovirus packaging. Retrovirus is added to Ba/F3 cells. To ensure infection, 4 μg/mL polybrene is added and cells are spinfected. […] Cells with an infection efficiency of 10% to 20% are further cultivated and puromycin selection with 1 μg/mL is initiated. As a control, parental Ba/F3 cells are used to show selection status. Selection is considered successful when parental Ba/F3 cells cultures died. To evaluate the transforming potential of KRASG12 mutations, the growth medium is no longer supplemented with IL-3. Ba/F3 cells harboring the empty vector are used as a control. Approximately ten days before conducting the experiments, puromycin is left out.
Compounds are added using an Access Labcyte Workstation with a Labcyte Echo 550 or 555 accoustic dispenser. All treatments are performed in technical duplicates. […] AlamarBlue™ (ThermoFisher), a viability stain, is added and fluorescence measured in the PerkinElmer Envision HTS Multilabel Reader. The raw data are imported into and analyzed with the Boehringer Ingelheim proprietary software MegaLab (curve fitting based on the program PRISM, GraphPad Inc.).

[5] = Caco-2 assay (permeability PappAB, PappBA, efflux ratio); assay type: in vitro ADME; settings: human, Caco-2, 10 μM test compound, pH 7.4
Description: The assay provides information on the potential of a compound to pass the cell membrane, on the extent of oral absorption as well as on whether the compound is actively transported by uptake and/or efflux transporters. Permeability measurements across polarized, confluent Caco-2 cell monolayers grown on permeable filter supports (Corning, catalog #3391) are used. […] The receiver and donor compartments contain 0.25% bovine serum albumine (BSA) in assay buffer. Passive diffusion and/or active transport of compounds across the monolayer is measured in both apical to basolateral (a-b) and basolateral to apical (b-a) direction. a-b permeability (PappAB) represents drug absorption from the intestine into the blood and b-a permeability (PappBA) drug secretion from the blood back into the intestine via both passive permeability as well as active transport mechanisms mediated by efflux and uptake transporters that are expressed on the Caco-2 cells. After a pre-incubation of 25-30 min at 37° C., at predefined time points (0, 30, 60 and 90 min), samples were taken from the receiver and donor compartment, respectively. Concentrations of test compounds in samples were measured by HPLC/MS/MS, samples from the donor compartment were diluted 1:50 (v:v) with assay buffer, samples from receiver compartment were measured without dilution.
Apparent permeabilities in a-b (PappAB) and b-a (PappBA) directions are calculated according to the formula:
[formula] • Vrec [mL]: buffer volume in receiver compartment • Cdon [μmol/mL]: concentration of test compound in donor compartment at t=0 • ΔCrec: difference between concentrations of test compound in receiver compartment at start and end of incubation time • Δt: Incubation time • Vrec·ΔCrec/Δt [μmol/min]: Amount of compound transferred to receiver compartment per time • A [cm^2]: filter surface
Caco-2 efflux ratios (ER) are calculated as the ratio of PappBA/PappAB.

[6] = McIlvaine buffer pH 4.5, read-out: solubility pH 4.5
[7] = McIlvaine buffer pH 6.8, read-out: solubility pH 6.8

C[C@H](Oc1cc(N2CCCC2=O)nc(-c2noc3c2CCC[C@@]32CCCc3sc(N)c(C#N)c32)n1)[C@@H]1CCCN1C [II-73]
pIC50 [1]: 5.74
solubility at 24 h [2, 6]: > 124 µg/mL
solubility at 24 h [2, 7]: 88 µg/mL (≈ 153 µM)
pIC50 [3]: 7.48
pIC50 [4]: 7.80

C[C@H](Oc1cc(-c2ccn(C3COC3)n2)nc(-c2noc3c2CCC[C@@]32CCCc3sc(N)c(C#N)c32)n1)[C@@H]1C[C@H](F)CN1C [II-83]
pIC50 [1]: 5.29
solubility at 24 h [2, 6]: < 1 µg/mL
solubility at 24 h [2, 7]: < 1 µg/mL
pIC50 [3]: 7.74
pIC50 [4]: 7.48

C[C@H](Oc1cc(N2CCOC3(COC3)C2)nc(-c2noc3c2CCC[C@@]32CCCc3sc(N)c(C#N)c32)n1)[C@@H]1CCCN1C [II-77]
pIC50 [1]: 6.13
solubility at 24 h [2, 6]: > 143 µg/mL
solubility at 24 h [2, 7]: > 134 µg/mL
pIC50 [3]: 6.82
pIC50 [4]: 7.55

C[C@H](Oc1cc(N2CCc3cccnc32)nc(-c2noc3c2CCC[C@@]32CCCc3sc(N)c(C#N)c32)n1)[C@@H]1CCCN1C [II-90]
pIC50 [1]: 5.42
pIC50 [3]: 5.36
pIC50 [4]: 6.40

C[C@H]1CN(C)CCCN1c1cc(N2CCN(C)CC2)nc(-c2onc3c2CCC[C@@]32CCCc3sc(N)c(C#N)c32)n1 [I-7]
pIC50 [1]: 5.63
solubility at 24 h [2, 6]: > 139 µg/mL
solubility at 24 h [2, 7]: > 133 µg/mL
pIC50 [3]: 6.33
pIC50 [4]: 6.72

C[C@H](Oc1cc(N2C[C@H](C)NC3(CC3)C2)nc(-c2onc3c2CCC[C@@]32CCCc3sc(N)c(C#N)c32)n1)[C@@H]1CCCN1C [I-8]
pIC50 [1]: 6.29
solubility at 24 h [2, 6]: > 146 µg/mL
solubility at 24 h [2, 7]: 116 µg/mL (≈ 189 µM)
pIC50 [3]: 6.88
pIC50 [4]: 8.40

C[C@H](Oc1cc(-n2cnc3cccnc32)nc(-c2noc3c2CCC[C@@]32CCCc3sc(N)c(C#N)c32)n1)[C@@H]1CCCN1C [II-65]
pIC50 [1]: 5.45
solubility at 24 h [2, 6]: 7 µg/mL (≈ 11.5 µM)
solubility at 24 h [2, 7]: < 1 µg/mL
pIC50 [3]: 6.76
pIC50 [4]: 6.91

C[C@H](Oc1cc(-c2ccn(-c3ccsc3)n2)nc(-c2noc3c2CCC[C@@]32CCCc3sc(N)c(C#N)c32)n1)[C@@H]1CCCN1C [II-84]
pIC50 [1]: 5.51
solubility at 24 h [2, 6]: < 1 µg/mL
solubility at 24 h [2, 7]: < 1 µg/mL
pIC50 [3]: 7.28
pIC50 [4]: 7.10

C[C@H](Oc1cc(N2CCNC[C@@]23CCOC3)nc(-c2noc3c2CCC[C@@]32CCCc3sc(N)c(C#N)c32)n1)[C@@H]1CCCN1C [II-51]
pIC50 [1]: 6.04
solubility at 24 h [2, 6]: > 138 µg/mL
solubility at 24 h [2, 7]: > 133 µg/mL
pIC50 [3]: 7.15
pIC50 [4]: 7.43

Cc1nccn1-c1cc(O[C@@H](C)[C@@H]2CCCN2C)nc(-c2noc3c2CCC[C@@]32CCCc3sc(N)c(C#N)c32)n1 [II-79]
pIC50 [1]: 5.55
solubility at 24 h [2, 6]: > 154 µg/mL
solubility at 24 h [2, 7]: 102 µg/mL (≈ 179 µM)
pIC50 [3]: 5.59
pIC50 [4]: 7.35

C[C@H](Oc1cc(N2CCN3CCC3C2)nc(-c2onc3c2CCC[C@@]32CCCc3sc(N)c(C#N)c32)n1)[C@@H]1CCCN1C (stereo partly drawn) [I-9]
pIC50 [1]: 5.54
solubility at 24 h [2, 6]: > 149 µg/mL
solubility at 24 h [2, 7]: > 147 µg/mL
pIC50 [3]: 4.69
pIC50 [4]: 7.04

C[C@H](Oc1cc(-n2ccncc2=O)nc(-c2noc3c2CCC[C@@]32CCCc3sc(N)c(C#N)c32)n1)[C@@H]1CCCN1C [II-116]
pIC50 [1]: 5.19
pIC50 [3]: 5.70
pIC50 [4]: 7.52

C[C@H](Oc1cc(N2CCNCC23CCOC3)nc(-c2onc3c2CCC[C@@]32CCCc3sc(N)c(C#N)c32)n1)[C@@H]1CCCN1C (stereo partly drawn) [I-10]
Papp A→B at 90 min, 10 μM ([5]; apical to basolateral): < 2.1 ×10⁻⁶ cm/s
solubility at 24 h [2, 6]: > 141 µg/mL
solubility at 24 h [2, 7]: > 136 µg/mL
pIC50 [4]: 8.05

C[C@H](Oc1cc(-c2cncs2)nc(-c2noc3c2CCC[C@@]32CCCc3sc(N)c(C#N)c32)n1)[C@@H]1CCCN1C [II-80]
pIC50 [1]: 5.29
pIC50 [3]: < 4.60
pIC50 [4]: 7.39

Cc1nc(-c2cc(O[C@@H](C)[C@@H]3CCCN3C)nc(-c3noc4c3CCC[C@@]43CCCc4sc(N)c(C#N)c43)n2)cs1 [II-103]
solubility at 24 h [2, 6]: 53 µg/mL (≈ 90.2 µM)
solubility at 24 h [2, 7]: < 1 µg/mL
pIC50 [4]: 7.68

C[C@H](Oc1cc(-c2cn(C3CCOCC3)nn2)nc(-c2noc3c2CCC[C@@]32CCCc3sc(N)c(C#N)c32)n1)[C@@H]1CCCN1C [II-115]
pIC50 [4]: 6.88

C[C@H](Oc1cc(-n2cccc3cnnc2-3)nc(-c2noc3c2CCC[C@@]32CCCc3sc(N)c(C#N)c32)n1)[C@@H]1CCCN1C [II-92]
pIC50 [1]: 5.41
pIC50 [3]: 6.56
pIC50 [4]: 6.92

C[C@H](Oc1cc(-c2ccn3ncnc3c2)nc(-c2noc3c2CCC[C@@]32CCCc3sc(N)c(C#N)c32)n1)[C@@H]1CCCN1C [II-104]
efflux ratio at 90 min, 10 μM ([5]; efflux ratio PappBA/PappAB, read-out: Caco ER): 4.2
solubility at 24 h [2, 6]: 3 µg/mL (≈ 4.94 µM)
solubility at 24 h [2, 7]: < 1 µg/mL
pIC50 [3]: 6.94
pIC50 [4]: 7.11
